# From patent US20150209309A1, “NACA FOR THE TREATMENT OF CHRONIC OR ACUTE COGNITIVE DYSFUNCTION” (Brighton Biotech, Inc, priority 2014, published 2015)
# How the values were obtained:
# [1] = in vivo
# [2] = cited from earlier work
smiles,measurement,setting,value
"CC(=O)N[C@@H](CS)C(=O)O [NAC, N-acetyl-L-cysteine]",crossing of the blood-brain barrier,[1],inability to cross the blood-brain barrier
same,membrane penetration / cell permeability,[2],low membrane penetration
